Experimental data published in PubChem BioAssay (NCI).
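Protocol summary: plate cells (96-well), add compound at 5 concentrations, incubate 48 h, interpolate endpoints linearly. GI50 = concentration required for 50% inhibition of growth. The concentration for full growth arrest is given as TGI.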

Key:
Assay in all cases: inhibition of tumour cell growth, NCI panel, 48 h
UACC-62 melanoma = system: UACC-62 melanoma
M14 melanoma = system: M14 melanoma
U251 CNS = system: U251 CNS
OVCAR-3 ovarian = system: OVCAR-3 ovarian
IGROV1 ovarian = system: IGROV1 ovarian
SN12C renal = system: SN12C renal
COLO 205 colon = system: COLO 205 colon
OVCAR-5 ovarian = system: OVCAR-5 ovarian
MOLT-4 leukemia = system: MOLT-4 leukemia
SK-OV-3 ovarian = system: SK-OV-3 ovarian

Row | SMILES | TGI (UACC-62 melanoma) [µM] | TGI (M14 melanoma) [µM] | TGI (U251 CNS) [µM] | TGI (OVCAR-3 ovarian) [µM] | TGI (IGROV1 ovarian) [µM] | TGI (SN12C renal) [µM] | TGI (COLO 205 colon) [µM] | TGI (OVCAR-5 ovarian) [µM] | TGI (MOLT-4 leukemia) [µM] | TGI (SK-OV-3 ovarian) [µM] | GI50 (UACC-62 melanoma) [µM] | GI50 (M14 melanoma) [µM] | GI50 (U251 CNS) [µM] | GI50 (OVCAR-3 ovarian) [µM] | GI50 (IGROV1 ovarian) [µM] | GI50 (SN12C renal) [µM] | GI50 (COLO 205 colon) [µM] | GI50 (OVCAR-5 ovarian) [µM] | GI50 (MOLT-4 leukemia) [µM] | GI50 (SK-OV-3 ovarian) [µM]
1 | CO[C@H](c1ccccc1)[C@H](O)[C@](O)(c1ccccc1)P(=O)(OC)OC | > 100 | > 100 | > 100 | > 100 | > 100 | > 100 | > 100 | > 100 | > 100 | > 100 | – | – | – | – | – | – | – | – | – | –
2 | CSC(=N)N1N=C2c3ccccc3CC[C@@H]2[C@@H]1c1ccccc1 | 41.7 | 27.4 | 31 | 36 | 34.8 | 31.2 | 26.6 | 34.7 | 35.8 | 41.6 | – | – | – | – | – | – | – | – | – | –
3 | COC(=O)C(Cc1c[nH]c2ccccc12)NP(=O)(O)OCC1OC(n2cc(F)c(=O)[nH]c2=O)CC1O (centres undefined) | > 100 | > 100 | > 100 | > 100 | > 100 | > 100 | > 100 | > 100 | > 100 | > 100 | – | – | – | – | – | – | – | – | – | –
4 | Cc1ccccc1NC(=O)/C(C#N)=N\Nc1nc[nH]c1C(N)=O | > 100 | > 100 | > 100 | > 100 | > 100 | > 100 | > 100 | > 100 | > 100 | > 100 | – | – | – | – | – | – | – | – | – | –
5 | CCOn1cc(C2=C(c3c[nH]c4ccccc34)C(=O)NC2=O)c2ccccc21 | 20.3 | 17.9 | 19.5 | < 0.0182 | > 61.6 | 14.8 | – | 17.2 | 10.4 | 0.735 | < 0.01 | 0.0542 | 0.488 | < 0.0117 | 15.8 | 0.765 | < 0.0439 | 0.398 | < 0.01 | 0.062
6 | N=C(N)C1CN(CC=O)C(=O)NC1=O (centres undefined) | > 100 | > 100 | > 100 | > 100 | > 100 | > 100 | > 100 | > 100 | > 100 | > 100 | – | – | – | – | – | – | – | – | – | –
7 | CCOC(=O)/C=C1\Nc2ccccc2-n2nnnc21 | > 100 | > 100 | 64.5 | > 100 | > 100 | > 100 | > 100 | > 100 | > 100 | > 100 | – | – | – | – | – | – | – | – | – | –
8 | O=C1CCSc2c(cnc3ccccc23)N1 | > 100 | > 100 | > 100 | > 100 | > 100 | > 100 | > 100 | > 100 | > 100 | > 100 | – | – | – | – | – | – | – | – | – | –
9 | Nc1c(Cl)c([N+](=O)[O-])cc2c1OCCCCO2 | > 100 | > 100 | 8.48 | > 100 | > 100 | > 100 | > 100 | > 100 | > 100 | 55.6 | – | – | – | – | – | – | – | – | – | –
10 | C=C(Cl)C(Br)(CBr)CCC(Br)C(C)(C)Br (centres undefined) | > 10 | > 10 | > 10 | > 10 | 3.68 | > 10 | > 10 | > 10 | > 10 | > 10 | – | – | – | – | – | – | – | – | – | –
